Data published in ChEMBL document CHEMBL4406816, “Role of sulphur-heterocycles in medicinal chemistry: An update” (Eur J Med Chem, 2019).
Converted amounts (≈) assume the structure as drawn.

Test system: Mycobacterium tuberculosis
Experiment: Antitubercular activity against multidrug resistant Mycobacterium tuberculosis
Type: functional

Structure (SMILES): O=C(N/N=C/c1ccc([N+](=O)[O-])cc1)[C@H]1CSC(c2ccc(F)cc2)N1 (stereo partly specified)
- MIC: 1.33 µM (≈ 0.498 µg/mL)
